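A five-concentration, 48-hour dose response in 96-well plates underlies each endpoint, interpolated linearly between surrounding concentrations. GI50: concentration for 50% inhibition of growth.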 Activity calls are given as the source filed them. Rule as the data show it: active = GI50 up to about 1.1 µM and inactive = higher.
Assays:
Test in all cases: NCI-60 cell line screen, 48 h
A498 = test system: A498
CCRF-CEM = test system: CCRF-CEM
DU-145 = test system: DU-145
HCC 2998 = test system: HCC 2998
HCT-15 = test system: HCT-15
IGROV-1 = test system: IGROV-1
MCF7 = test system: MCF7
MDA-N = test system: MDA-N
NCI-H23 = test system: NCI-H23
OVCAR-3 = test system: OVCAR-3
SF-268 = test system: SF-268
SF-295 = test system: SF-295
SK-MEL-28 = test system: SK-MEL-28
SNB-19 = test system: SNB-19
T47D = test system: T47D
TK-10 = test system: TK-10
U-251 = test system: U-251
UO-31 = test system: UO-31
SW-620 = test system: SW-620
SNB-75 = test system: SNB-75

Row | SMILES | GI50 (A498) | GI50 (CCRF-CEM) | GI50 (DU-145) | GI50 (HCC 2998) | GI50 (HCT-15) | GI50 (IGROV-1) | GI50 (MCF7) | GI50 (MDA-N) | GI50 (NCI-H23) | GI50 (OVCAR-3) | GI50 (SF-268) | GI50 (SF-295) | GI50 (SK-MEL-28) | GI50 (SNB-19) | GI50 (T47D) | GI50 (TK-10) | GI50 (U-251) | GI50 (UO-31) | GI50 (SW-620) | GI50 (SNB-75)
1 | COC(=O)C(I(OS(=O)(=O)c1ccc(C)cc1)c1ccccc1)=P(c1ccccc1)(c1ccccc1)c1ccccc1 | 18.2 µM (inactive) | 10.3 µM (inactive) | 15.9 µM (inactive) | 19.2 µM (inactive) | 35.3 µM | 17.1 µM (inactive) | 30.3 µM (inactive) | 14.1 µM (inactive) | 16.8 µM (inactive) | 16.4 µM (inactive) | 17.5 µM (inactive) | 30.1 µM (inactive) | 15.1 µM (inactive) | 33.9 µM (inactive) | 15.9 µM (inactive) | 23.6 µM (inactive) | 20.7 µM (inactive) | 22.2 µM (inactive) |  | 
2 | Nc1nc(-c2cccnc2)cc(-c2cc(-c3cccnc3)nc(N)n2)n1 | > 100 µM (inactive) | 75.2 µM (inactive) | > 100 µM (inactive) | > 100 µM (inactive) | > 100 µM | > 100 µM (inactive) | > 100 µM (inactive) | 58.7 µM (inactive) | > 100 µM (inactive) | > 100 µM (inactive) | > 100 µM (inactive) | > 100 µM (inactive) | > 100 µM (inactive) | > 100 µM (inactive) | > 100 µM (inactive) | > 100 µM (inactive) | > 100 µM (inactive) | > 100 µM (inactive) | > 100 µM (inactive) | 
3 | COc1ccc(C(=O)/C=C2\c3ccccc3C(=O)N2C)cc1 | 69 µM (inactive) | 44.8 µM (inactive) | > 100 µM (inactive) |  | 36.4 µM | 28 µM (inactive) | 21 µM (inactive) | 41.4 µM (inactive) | 55.3 µM (inactive) | 98.2 µM (inactive) | 61.2 µM (inactive) | 71 µM (inactive) | > 100 µM (inactive) | > 100 µM (inactive) | 27 µM (inactive) | 31.2 µM (inactive) | 74.8 µM (inactive) | 44.3 µM (inactive) | > 100 µM (inactive) | 22.8 µM (inactive)
4 | COC(=O)CC(c1cn(S(=O)(=O)c2ccc(C)cc2)c2ccccc12)C1C[C@@H](C(=O)OC)N(C(=O)OC(C)(C)C)C1=O (stereo partly specified) | 71.4 µM (inactive) | 9.18 µM (inactive) | 87.1 µM (inactive) |  | 26.5 µM | 16.4 µM (inactive) | 33.5 µM (inactive) | 55.8 µM (inactive) | 66.8 µM (inactive) | 31 µM (inactive) | 53.6 µM (inactive) | 20.9 µM (inactive) | > 100 µM (inactive) | > 100 µM (inactive) | 95.3 µM (inactive) | > 100 µM (inactive) | 33.9 µM (inactive) | 45.6 µM (inactive) | 12.5 µM (inactive) | 64.1 µM (inactive)
5 | CN1CN(c2ccccc2)C2(CCN(C3Nc4ccccc4O3)CC2)C1=O (stereo unspecified) | 15.5 µM (inactive) | 13.2 µM (inactive) | 22.7 µM (inactive) |  | 15.2 µM | 22.9 µM (inactive) | 19.5 µM (inactive) | 17.9 µM (inactive) | 21.2 µM (inactive) | 17.2 µM (inactive) | 23.3 µM (inactive) | 16.6 µM (inactive) | 23.5 µM (inactive) | 23.7 µM (inactive) | 22.2 µM (inactive) | 11.1 µM (inactive) | 18.2 µM (inactive) | 27.5 µM (inactive) | 33.7 µM (inactive) | 20.9 µM (inactive)
6 | c1ccc2c(c1)Sc1ccccc1N2CCCN1c2ccccc2Sc2ccccc21 | > 100 µM (inactive) |  | > 100 µM (inactive) | > 100 µM (inactive) | > 100 µM | > 100 µM (inactive) | > 100 µM (inactive) | > 100 µM (inactive) | > 100 µM (inactive) | 63.5 µM (inactive) | > 100 µM (inactive) | > 100 µM (inactive) | > 100 µM (inactive) | > 100 µM (inactive) | > 100 µM (inactive) | > 100 µM (inactive) | 45.9 µM (inactive) | > 100 µM (inactive) | > 100 µM (inactive) | 
7 | Cc1cc(C)nc(NS(=O)(=O)c2ccc(NN=c3c4ccccc4n(C)c4ccccc34)cc2)n1 |  | 15.7 µM (inactive) | 37 µM (inactive) | 28.3 µM (inactive) | 32.7 µM | 45.8 µM (inactive) | 17.3 µM (inactive) | 22.2 µM (inactive) | 25.6 µM (inactive) | 30.2 µM (inactive) | 25.6 µM (inactive) | 44.7 µM (inactive) | 37 µM (inactive) | 42.3 µM (inactive) | 13.9 µM (inactive) | 28.6 µM (inactive) | 34.5 µM (inactive) | 16.6 µM (inactive) | 26.1 µM (inactive) | 12.7 µM (inactive)

Reference: ChEMBL document CHEMBL1201862, “PubChem BioAssay data set” (2004)
